The subject of one data set is mouse sciatic nerve. The experiment in a line: In vivo sciatic nerve fluorescence contrast (nerve vs surrounding muscle). Particulars: 150 nmol via tail vein injection, imaging at 2 h. As to the method:
(§1) Fluorescence contrast activity of was assessed using male euthymic and immunocompetent hairless SKH1-E mice (25-35 grams). On the day of study, each involved mouse was weighed and restrained using the rotating tail injector for intravenous (tail vein) injection in conscious animal.
(§2) Test agents were injected intravenously into the tail vein (30-150 nmol in 0.1 mL/mouse). The animals were returned to assigned cage and kept under controlled environmental conditions before being examined for sciatic nerve fluorescence labeling 2 hours later.
(§3) Two hours after the intravenous injection, the mice were anesthetized with a mixture of ketamine HCl/Xylazine HCl solution administered intraperitoneally. The deeply anesthetized mice were transferred on the piece of cork for blunt dissection of sciatic nerve.
After the full body imaging, the deeply anesthetized mice were transferred on the computerized fluorescent stereomicroscope equipped with appropriate excitation/emission filters to examine and record the fluorescence specific to sciatic nerve and compare it to that documented on the surrounding tissues such as muscle. All captured images were examined and analyzed using Image J to generate quantitative data.
For each experimental group, fluorescence intensities from each mouse sciatic nerve were averaged to generate the Mean±SEM value. The background was defined as the average fluorescence intensities of the muscle tissue surrounding the sciatic nerve. The fluorescence contrast (C) is defined and calculated as C=(IN−IB)/IB, where IN is the average nerve fluorescence intensity and IB is the average proximal background intensity. Constrast>0.4 is considered good.

The next data set deals with mouse skin. In words: In vivo skin fluorescence (full body imaging, skin staining activity). Particulars: 150 nmol via tail vein injection, imaging at 2 h. Here is the method: as §1, §2, §3
Full body imaging of deeply anesthetized mouse with open surgical wound/exposed sciatic nerve was then performed using a computerized imaging system with appropriate excitation/emission filters. The full body imaging was used to calculate the skin staining activity of the visualization agents.

Data set [1] in a line: Stability of peptide A in saline (control). Format: physicochemical. Particulars: 48 h. Here is the method:
(§4) 6-Carboxylfluorescein (6-FAM) labeled peptide A (1 mg) was added to freshly prepared mouse plasma (0.5 mL). The resulting solution was gently mixed and incubated at 37° C. The reaction was followed by an LC-MS at different time points. An analogous procedure was done at room temperature with 1-5 mg of Peptide A.
The peak was isolated by preparative RP-HPLC. […] As a control, peptide A is stable in saline after 48 h (Chart E&F, FIG. 5).

Data set [2] can be described thus: Plasma digestion of Peptide A followed by LC-MS. Particulars: mouse plasma, 37° C. Format: in vitro ADME. Here is the method:
as §4

Results on two compounds are retold here after patent publication US9353154B2, “Compositions for labeling nerves and methods of use” (Avelas Biosciences, Inc., priority 2010, dated 2016).

“Also recorded” adds a separate entry of the source. Where a SMILES comes first, the peptide text is derived from it. The star is where a group is joined. 6FAM = O=C1OC2(c3ccc(O)cc3Oc3cc(O)ccc32)c2cc(C(=O)*)ccc21

With “Ac-Glu-His-Thr-Gly-Lys(6FAM)-NH2 (Ac-EHTGK(6FAM)-NH2; SMILES CC(=O)N[C@@H](CCC(=O)O)C(=O)N[C@@H](Cc1c[nH]cn1)C(=O)N[C@H](C(=O)NCC(=O)N[C@@H](CCCCNC(=O)c1ccc2c(c1)C1(OC2=O)c2ccc(O)cc2Oc2cc(O)ccc21)C(N)=O)[C@@H](C)O) [Peptide 3]”, the figures for the fluorescence nerve contrast result with mouse sciatic nerve and in the data set with mouse sciatic nerve (listed as peptide 3) were “high” and “excellent; also recorded: very high”, respectively. In the data set on mouse sciatic nerve, the “fluorescence nerve contrast relative to peptide A” value was “greater”. The “skin fluorescence compared to peptide A” value in the data set with mouse skin is “significantly less”; in the data set on mouse skin (listed as peptide 3) it was “much less”.
Regarding `CC(=O)N[C@@H](CO)C(=O)N[C@@H](Cc1c[nH]cn1)C(=O)N[C@@H](CO)C(=O)N[C@@H](CC(N)=O)C(=O)N[C@H](C(=O)N[C@@H](CCC(N)=O)C(=O)N[C@H](C(=O)N[C@@H](CC(C)C)C(=O)N[C@@H](C)C(=O)N[C@@H](CCCCN)C(=O)N[C@@H](C)C(=O)N1CCC[C@H]1C(=O)N[C@@H](CCC(=O)O)C(=O)N[C@@H](Cc1c[nH]cn1)C(=O)N[C@H](C(=O)NCC(=O)N[C@@H](CCCCNC(=O)c1ccc2c(c1)C1(OC2=O)c2ccc(O)cc2Oc2cc(O)ccc21)C(N)=O)[C@@H](C)O)[C@@H](C)O)[C@@H](C)O` [Peptide A, Ac-Ser-His-Ser-Asn-Thr-Gln-Thr-Leu-Ala-Lys-Ala-Pro-Glu-His-Thr-Gly-Lys(6FAM)-NH2] (Ac-SHSNTQTLAKAPEHTGK(6FAM)-NH2), in data set [1], the stability in saline entry was “stable”. For the same compound, in data set [2] (3 h), the “digested products in plasma” value is “No detectable digested products”. The “digestion in plasma (HPLC chromatogram, 220 nm absorbance)” value in data set [2] (20 h) and in data set [2] (48 h) was “a new peak appeared” in each case. For the same compound, in data set [2] (peak isolated by preparative RP-HPLC), the “major truncated component after plasma digestion” value is listed as “C-terminus lysine labeled with 6-FAM”.
